Target: KRasG12C (M1-K169, biotinylated on the N-terminus) (Homo sapiens (Human), UniProt P01116, G12C)
Assay: Covalent competition assay: scintillation proximity assay (SPA) quantifying covalent modification of KRASG12C
Format: binding
Conditions: competition with radiolabeled covalent probe (Compound B/Compound A), 2 hours incubation, 10 nM KRasG12C
Outline: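 Scintillation proximity readout after streptavidin bead capture (30 min) of biotinylated KRasG12C(M1-K169):GDP, 10 nM final, which was covalently labelled over 2 h by 25 nM radio-probe plus 475 nM cold probe unless blocked by compound.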

Row | SMILES | IC50
1 | C=CC(=O)N1CC2(CC(n3nc(N4CCC(CN5CC6CC(C5)O6)CC4(C)C)c(-c4c(Cl)c(Cl)cc5[nH]ncc45)c3C)C2)C1 (single isomer, unassigned) [Example 229b, 1-(6-(3-(4-((6-oxa-3-azabicyclo[3.1.1]heptan-3-yl)methyl)-2,2-dimethylpiperidin-1-yl)-4-(5,6-dichloro-1H-indazol-4-yl)-5-methyl-1H-pyrazol-1-yl)-2-azaspiro[3.3]heptan-2-yl)prop-2-en-1-one] | 11 nM
2 | C=CC(=O)N1CC2(CC(n3nc(N4CCC(CN5C[C@@H]6OCCO[C@@H]6C5)CC4(C)C)c(-c4c(Cl)c(Cl)cc5[nH]ncc45)c3C)C2)C1 (single isomer, unassigned) [Example 231a] | > 5000 nM
3 | C=CC(=O)N1CC2(CC(n3nc(N4CCC(CN5C[C@@H]6OCCO[C@@H]6C5)CC4(C)C)c(-c4c(Cl)c(Cl)cc5[nH]ncc45)c3C)C2)C1 (single isomer, unassigned) [Example 231b] | 11 nM
4 | C=CC(=O)N1CC2(CC(n3nc(N4CCC(CN5C[C@@H]6OCCO[C@@H]6C5)CC4(C)C)c(-c4c(Cl)c(Cl)cc5[nH]ncc45)c3C)C2)C1 (single isomer, unassigned) [Example 232a] | > 5000 nM
5 | C=CC(=O)N1CC2(CC(n3nc(N4CCC(CN5C[C@@H]6OCCO[C@@H]6C5)CC4(C)C)c(-c4c(Cl)c(Cl)cc5[nH]ncc45)c3C)C2)C1 (single isomer, unassigned) [Example 232b] | 137 nM
6 | C=CC(=O)N1CC2(CC(n3nc(N4CC[C@@H](CN5CCOCC5)CC4(C)C)c(-c4c(C)c(Cl)cc5[nH]ncc45)c3C)C2)C1 (single isomer, unassigned) [Example 233a] | 4000 nM
7 | C=CC(=O)N1CC2(CC(n3nc(N4CC[C@@H](CN5CCOCC5)CC4(C)C)c(-c4c(C)c(Cl)cc5[nH]ncc45)c3C)C2)C1 (single isomer, unassigned) [Example 233b] | 20 nM
8 | C=CC(=O)N1CC2(CC(n3nc(N4CC[C@@H](CN5CC6(CCCO6)C5)CC4(C)C)c(-c4c(Cl)c(Cl)cc5[nH]ncc45)c3C)C2)C1 (single isomer, unassigned) [Example 234a] | 1000 nM
9 | C=CC(=O)N1CC2(CC(n3nc(N4CC[C@@H](CN5CC6(CCCO6)C5)CC4(C)C)c(-c4c(Cl)c(Cl)cc5[nH]ncc45)c3C)C2)C1 (single isomer, unassigned) [Example 234b] | 9 nM
10 | C=CC(=O)N1CC2(CC(n3nc(N4CCC(CN5CCS(=O)(=O)CC5)CC4(C)C)c(-c4c(Cl)c(Cl)cc5[nH]ncc45)c3C)C2)C1 (single isomer, unassigned) [Example 235a, 1-(6-(4-(5,6-dichloro-1H-indazol-4-yl)-3-(4-((1,1-dioxidothiomorpholino)methyl)-2,2-dimethylpiperidin-1-yl)-5-methyl-1H-pyrazol-1-yl)-2-azaspiro[3.3]heptan-2-yl)prop-2-en-1-one] | 932 nM
11 | C=CC(=O)N1CC2(CC(n3nc(N4CCC(CN5CCS(=O)(=O)CC5)CC4(C)C)c(-c4c(Cl)c(Cl)cc5[nH]ncc45)c3C)C2)C1 (single isomer, unassigned) [Example 235b, 1-(6-(4-(5,6-dichloro-1H-indazol-4-yl)-3-(4-((1,1-dioxidothiomorpholino)methyl)-2,2-dimethylpiperidin-1-yl)-5-methyl-1H-pyrazol-1-yl)-2-azaspiro[3.3]heptan-2-yl)prop-2-en-1-one] | 10 nM
12 | C=CC(=O)N1CC2(CC(n3nc(N4CCC(CN5CCS(=O)(=O)CC5)CC4(C)C)c(-c4c(Cl)c(Cl)cc5[nH]ncc45)c3C)C2)C1 (single isomer, unassigned) [Example 236a, 1-(6-(4-(5,6-dichloro-1H-indazol-4-yl)-3-(4-((1,1-dioxidothiomorpholino)methyl)-2,2-dimethylpiperidin-1-yl)-5-methyl-1H-pyrazol-1-yl)-2-azaspiro[3.3]heptan-2-yl)prop-2-en-1-one] | 168 nM
13 | C=CC(=O)N1CC2(CC(n3nc(N4CCC(CN5CCS(=O)(=O)CC5)CC4(C)C)c(-c4c(Cl)c(Cl)cc5[nH]ncc45)c3C)C2)C1 (single isomer, unassigned) [Example 236b, 1-(6-(4-(5,6-dichloro-1H-indazol-4-yl)-3-(4-((1,1-dioxidothiomorpholino)methyl)-2,2-dimethylpiperidin-1-yl)-5-methyl-1H-pyrazol-1-yl)-2-azaspiro[3.3]heptan-2-yl)prop-2-en-1-one] | 2500 nM
14 | C=CC(=O)N1CC2(CC(n3nc(N4CCC(O)(CN5CCOCC5)CC4(C)C)c(-c4c(Cl)c(Cl)cc5[nH]ncc45)c3C)C2)C1 (single isomer, unassigned) [Example 237a, 1-(6-(4-(5,6-dichloro-1H-indazol-4-yl)-3-(4-hydroxy-2,2-dimethyl-4-(morpholinomethyl)piperidin-1-yl)-5-methyl-1H-pyrazol-1-yl)-2-azaspiro[3.3]heptan-2-yl)prop-2-en-1-one] | > 5000 nM
15 | C=CC(=O)N1CC2(CC(n3nc(N4CCC(O)(CN5CCOCC5)CC4(C)C)c(-c4c(Cl)c(Cl)cc5[nH]ncc45)c3C)C2)C1 (single isomer, unassigned) [Example 237b, 1-(6-(4-(5,6-dichloro-1H-indazol-4-yl)-3-(4-hydroxy-2,2-dimethyl-4-(morpholinomethyl)piperidin-1-yl)-5-methyl-1H-pyrazol-1-yl)-2-azaspiro[3.3]heptan-2-yl)prop-2-en-1-one] | 31 nM
16 | C=CC(=O)N1CC2(CC(n3nc(N4CCC(O)(CN5CCOCC5)CC4(C)C)c(-c4c(Cl)c(Cl)cc5[nH]ncc45)c3C)C2)C1 (single isomer, unassigned) [Example 238a, 1-(6-(4-(5,6-dichloro-1H-indazol-4-yl)-3-(4-hydroxy-2,2-dimethyl-4-(morpholinomethyl)piperidin-1-yl)-5-methyl-1H-pyrazol-1-yl)-2-azaspiro[3.3]heptan-2-yl)prop-2-en-1-one] | 36 nM
17 | C=CC(=O)N1CC2(CC(n3nc(N4CCC(O)(CN5CCOCC5)CC4(C)C)c(-c4c(Cl)c(Cl)cc5[nH]ncc45)c3C)C2)C1 (single isomer, unassigned) [Example 238b, 1-(6-(4-(5,6-dichloro-1H-indazol-4-yl)-3-(4-hydroxy-2,2-dimethyl-4-(morpholinomethyl)piperidin-1-yl)-5-methyl-1H-pyrazol-1-yl)-2-azaspiro[3.3]heptan-2-yl)prop-2-en-1-one] | 503 nM
18 | C=CC(=O)N1CC2(CC(n3nc(N4CCC(CN5CCN(C)C(=O)C5)CC4(C)C)c(-c4c(Cl)c(Cl)cc5[nH]ncc45)c3C)C2)C1 (single isomer, unassigned) [Example 239a, 4-((1-(1-(2-acryloyl-2-azaspiro[3.3]heptan-6-yl)-4-(5,6-dichloro-1H-indazol-4-yl)-5-methyl-1H-pyrazol-3-yl)-2,2-dimethylpiperidin-4-yl)methyl)-1-methylpiperazin-2-one] | 1600 nM
19 | C=CC(=O)N1CC2(CC(n3nc(N4CCC(CN5CCN(C)C(=O)C5)CC4(C)C)c(-c4c(Cl)c(Cl)cc5[nH]ncc45)c3C)C2)C1 (single isomer, unassigned) [Example 239b, 4-((1-(1-(2-acryloyl-2-azaspiro[3.3]heptan-6-yl)-4-(5,6-dichloro-1H-indazol-4-yl)-5-methyl-1H-pyrazol-3-yl)-2,2-dimethylpiperidin-4-yl)methyl)-1-methylpiperazin-2-one] | 9 nM
20 | C=CC(=O)N1CC2(CC(n3nc(N4CCC(CN5CCN(C)CC5=O)CC4(C)C)c(-c4c(Cl)c(Cl)cc5[nH]ncc45)c3C)C2)C1 (single isomer, unassigned) [Example 240a, 1-((1-(1-(2-acryloyl-2-azaspiro[3.3]heptan-6-yl)-4-(5,6-dichloro-1H-indazol-4-yl)-5-methyl-1H-pyrazol-3-yl)-2,2-dimethylpiperidin-4-yl)methyl)-4-methylpiperazin-2-one] | 390 nM
21 | C=CC(=O)N1CC2(CC(n3nc(N4CCC(CN5CCN(C)CC5=O)CC4(C)C)c(-c4c(Cl)c(Cl)cc5[nH]ncc45)c3C)C2)C1 (single isomer, unassigned) [Example 240b, 1-((1-(1-(2-acryloyl-2-azaspiro[3.3]heptan-6-yl)-4-(5,6-dichloro-1H-indazol-4-yl)-5-methyl-1H-pyrazol-3-yl)-2,2-dimethylpiperidin-4-yl)methyl)-4-methylpiperazin-2-one] | 8 nM
22 | C=CC(=O)N1CC2(CC(n3nc(N4CC[C@@H](CN5CCOCC5)CC4(C)C)c(-c4c(Cl)c(Cl)cc5[nH]nc(N)c45)c3C)C2)C1 (single isomer, unassigned) [Example 241a] | 8 nM
23 | C=CC(=O)N1CC2(CC(n3nc(N4CC[C@@H](CN5CCOCC5)CC4(C)C)c(-c4c(Cl)c(Cl)cc5[nH]nc(N)c45)c3C)C2)C1 (single isomer, unassigned) [Example 241b] | 536 nM
24 | C=CC(=O)N1CC2(CC(n3nc(N4CC[C@@H](CN5CCOCC5)CC4(C)C)c(-c4c(Cl)c(C)cc5[nH]nc(N)c45)c3C)C2)C1 (single isomer, unassigned) [Example 242a] | 13 nM
25 | C=CC(=O)N1CC2(CC(n3nc(N4CC[C@@H](CN5CCOCC5)CC4(C)C)c(-c4c(Cl)c(C)cc5[nH]nc(N)c45)c3C)C2)C1 (single isomer, unassigned) [Example 242b] | 1400 nM
26 | C=CC(=O)N1CC2(CC(n3nc(N4CC[C@@H](CN5CCN(C6COC6)CC5)CC4(C)C)c(-c4c(Cl)c(Cl)cc5[nH]ncc45)c3C)C2)C1 (single isomer, unassigned) [Example 243a] | 3800 nM
27 | C=CC(=O)N1CC2(CC(n3nc(N4CC[C@@H](CN5CCN(C6COC6)CC5)CC4(C)C)c(-c4c(Cl)c(Cl)cc5[nH]ncc45)c3C)C2)C1 (single isomer, unassigned) [Example 243b] | 6 nM
28 | C=CC(=O)N1CC2(CC(n3nc(N4CC[C@@H](CN5CCN(C6COC6)CC5)CC4(C)C)c(-c4c(C)c(Cl)cc5[nH]ncc45)c3C)C2)C1 (single isomer, unassigned) [Example 244a] | 1400 nM
